What was measured:
[1] = system: Amyloid-β peptide release (Aβ42), HEK cells overexpressing APP (HEK-APP); test: Amyloid-β peptide release (Aβ42) assay, AlphaLISA on supernatant of HEK-APP cells; assay type: cell-based; conditions: Homo sapiens, HEK293, 24 h incubation with compound, read-out: Ab42 IC50 Ranges
Description: (§1) Amyloid-β Peptide Release (Aβ42 & AβTotal) Assay to Determine IC50 Values.
(§2) Compounds are dissolved in and diluted in 100% DMSO and incubated with HEK-APP cells for 24 h at 37° C. in 5% CO2. The supernatant from HEK-APP cells are mixed with antibodies: for Aβ42 detection: AlphaLISA Amyloid-β 1-42 Kit (Perkin Elmer AL203L) Anti-Amyloid β1-42-specific antibody acceptor beads, biotinylated anti-Amyloid-“β1-42” antibody and streptavidin (SA) donor beads diluted in AlphaLISA buffer (to the instructions of the supplier). For Aβ total detection: Custom Anti-Amyloid-βtotal acceptor beads (6E10 acceptor beads), biotinylated anti-Amyloid “β1-42” antibody (Perkin Elmer AL203L) and streptavidin (SA) donor beads diluted in AlphaLISA buffer (to the instructions of the supplier). After addition of supernatant to the antibody mix, the assay is incubated for 4.5 h. Amyloid-β peptide release (Aβ42 & AβTotal) is measured with a Pherastar FS (BMG) multimode reader using the alphascreen module.

[2] = system: Amyloid-β peptide release (AβTotal), HEK cells overexpressing APP (HEK-APP); test: Amyloid-β peptide release (AβTotal) assay, AlphaLISA on supernatant of HEK-APP cells; assay type: cell-based; conditions: ratio Abtot vs Ab42, HEK-APP cells, 24 h
Description: as §1, §2

Cc1cccc(CNc2ccnc(Nc3ccc(-c4nn5c(C)ncc5o4)cc3)n2)c1 [Example 75, N4-(3-methylbenzyl)-N2-(4-(5-methylimidazo[5,1-b][1,3,4]oxadiazol-2-yl)phenyl)pyrimidine-2,4-diamine]
IC50 [1]: 1000 to 2200 nM
Abtot/Ab42 selectivity ranges [2]: d (d: 10 fold > selectivity)

Cc1ncc2oc(-c3ccc(Nc4ccn(Cc5ccc(Cl)cc5)n4)cc3)nn12 [Example 29, [1-(4-Chloro-benzyl)-1H-pyrazol-3-yl]-[4-(5-methyl-imidazo[5,1-b][1,2,4]oxadiazol-2-yl)-phenyl]-amine]
IC50 [1]: 1000 to 2200 nM
Abtot/Ab42 selectivity ranges [2]: d (d: 10 fold > selectivity)

Cc1ncc2sc(C(=O)NCc3ccccc3OCC(F)(F)F)nn12 [Example 92, 5-Methyl-imidazo[5,1-b][1,3,4]thiadiazole-2-carboxylic acid 2-(2,2,2-trifluoro-ethoxy)-benzylamide]
IC50 [1]: < 100 nM
Abtot/Ab42 selectivity ranges [2]: d (d: 10 fold > selectivity)

Cc1ncc2sc(-c3ccc(C(=O)NCc4cccc5ccccc45)cc3)nn12 [Example 127, 4-(5-Methyl-imidazo[5,1-b][1,3,4]thiadiazol-2-yl)-N-naphthalen-1-ylmethyl-benzamide]
IC50 [1]: 500 to 1000 nM
Abtot/Ab42 selectivity ranges [2]: b (b: 100 fold > selectivity ≥ 50 fold)

Cc1ncc2oc(-c3ccc(NC(=O)Cc4cccc(F)c4F)cn3)nn12 [Example 79, 2-(2,3-Difluoro-phenyl)-N-[6-(5-methyl-imidazo[5,1-b][1,2,4]oxadiazol-2-yl)-pyridin-3-yl]-acetamide]
IC50 [1]: 1000 to 2200 nM
Abtot/Ab42 selectivity ranges [2]: c (c: 50 fold > selectivity ≥ 10 fold)

Cc1ncc2oc(-c3ccc(NCc4ccc(Cl)c(Cl)c4)cn3)nn12 [Example 28]
IC50 [1]: 100 to 500 nM
Abtot/Ab42 selectivity ranges [2]: d (d: 10 fold > selectivity)

Cc1ncc2oc(-c3ccc(NC(=O)Cc4ccccc4C(F)(F)F)cn3)nn12 [Example 83, N-[6-(5-Methyl-imidazo[5,1-b][1,2,4]oxadiazol-2-yl)-pyridin-3-yl]-2-(2-trifluoromethyl-phenyl)-acetamide]
IC50 [1]: 1000 to 2200 nM
Abtot/Ab42 selectivity ranges [2]: c (c: 50 fold > selectivity ≥ 10 fold)

Cc1ncc2sc(C(=O)N3CCCC3c3ccc(F)cc3)nn12 (centres unmarked) [Example 124, [2-(4-Fluoro-phenyl)-pyrrolidin-1-yl]-(5-methyl-imidazo[5,1-b][1,3,4]thiadiazol-2-yl)-methanone]
IC50 [1]: 100 to 500 nM
Abtot/Ab42 selectivity ranges [2]: d (d: 10 fold > selectivity)

Cc1ccc(C)c(CC(=O)Nc2ccc(-c3nn4c(C)ncc4o3)cc2C)c1 [Example 38]
IC50 [1]: 100 to 500 nM
Abtot/Ab42 selectivity ranges [2]: a (a: selectivity ≥ 100 fold)

Cc1ncc2oc(-c3ccc(NC(=O)C(c4ccccc4)c4ccccc4)cn3)nn12 [Example 80, N-[6-(5-Methyl-imidazo[5,1-b][1,2,4]oxadiazol-2-yl)-pyridin-3-yl]-2,2-diphenyl-acetamide]
IC50 [1]: 500 to 1000 nM
Abtot/Ab42 selectivity ranges [2]: c (c: 50 fold > selectivity ≥ 10 fold)

Cc1ncc2sc(C(=O)NCc3ccc(Oc4ccc(F)cc4)cc3)nn12 [Example 106, 5-Methyl-imidazo[5,1-b][1,3,4]thiadiazole-2-carboxylic acid 4-(4-fluoro-phenoxy)-benzylamide]
IC50 [1]: 100 to 500 nM
Abtot/Ab42 selectivity ranges [2]: b (b: 100 fold > selectivity ≥ 50 fold)

Cc1ncc2sc(C(=O)NCc3ccc(Oc4ccccc4)cc3)nn12 [Example 107, 5-Methyl-imidazo[5,1-b][1,3,4]thiadiazole-2-carboxylic acid 4-phenoxy-benzylamide]
IC50 [1]: 100 to 500 nM
Abtot/Ab42 selectivity ranges [2]: c (c: 50 fold > selectivity ≥ 10 fold)

Cc1ncc2oc(-c3ccc(NC(=O)Cc4ccc(Cl)cc4Cl)cc3)nn12 [Example 62, 2-(2,4-dichlorophenyl)-N-(4-(5-methylimidazo[5,1-b][1,3,4]oxadiazol-2-yl)phenyl)acetamide]
IC50 [1]: 500 to 1000 nM
Abtot/Ab42 selectivity ranges [2]: b (b: 100 fold > selectivity ≥ 50 fold)

Cc1ncc2oc(-c3ccc(NC(=O)Cc4ccc(-c5ccccc5)cc4)cc3)nn12 [Example 56, 2-Biphenyl-4-yl-N-[4-(5-methyl-imidazo[5,1-b][1,2,4]oxadiazol-2-yl)-phenyl]-acetamide]
IC50 [1]: 100 to 500 nM
Abtot/Ab42 selectivity ranges [2]: a (a: selectivity ≥ 100 fold)

Cc1cc(-c2nn3c(C)ncc3o2)ccc1NC(=O)Cc1ccccc1C(F)(F)F [Example 40, N-(2-methyl-4-(5-methylimidazo[5,1-b][1,3,4]oxadiazol-2-yl)phenyl)-2-(2-(trifluoromethyl)phenyl)acetamide]
IC50 [1]: 500 to 1000 nM
Abtot/Ab42 selectivity ranges [2]: b (b: 100 fold > selectivity ≥ 50 fold)

Cc1ncc2sc(C(=O)N3CCCCC3c3cccc(C(F)(F)F)c3)nn12 (centres unmarked) [Example 116, (5-Methyl-imidazo[5,1-b][1,3,4]thiadiazol-2-yl)-[2-(3-trifluoromethyl-phenyl)-piperidin-1-yl]-methanone]
IC50 [1]: 1000 to 2200 nM
Abtot/Ab42 selectivity ranges [2]: d (d: 10 fold > selectivity)

COc1cc(C(=O)NCc2cccc3ccccc23)ccc1-c1nn2c(C)ncc2o1 [Example 20, 3-Methoxy-4-(5-methyl-imidazo[5,1-b][1,2,4]oxadiazol-2-yl)-N-naphthalen-1-ylmethyl-benzamide]
IC50 [1]: 1000 to 2200 nM
Abtot/Ab42 selectivity ranges [2]: c (c: 50 fold > selectivity ≥ 10 fold)

Cc1ncc2sc(C(=O)N3CCC[C@@H]3c3ccc(Br)cc3)nn12 [Example 113, (R)-(2-(4-bromophenyl)pyrrolidin-1-yl)(5-methylimidazo[5,1-b][1,3,4]thiadiazol-2-yl)methanone]
IC50 [1]: < 100 nM
Abtot/Ab42 selectivity ranges [2]: d (d: 10 fold > selectivity)

Cc1ncc2sc(-c3ccc(NC(=O)Cc4ccc(Cl)c(Cl)c4)cc3)nn12 [Example 128, 2-(3,4-Dichloro-phenyl)-N-[4-(5-methyl-imidazo[5,1-b][1,3,4]thiadiazol-2-yl)-phenyl]-acetamide]
IC50 [1]: 500 to 1000 nM
Abtot/Ab42 selectivity ranges [2]: c (c: 50 fold > selectivity ≥ 10 fold)

COc1cc(NC(=O)Cc2c(Cl)cc(C(F)(F)F)cc2Cl)ccc1-c1nn2c(C)ncc2o1 [Example 32, 2-(2,6-dichloro-4-(trifluoromethyl)phenyl)-N-(3-methoxy-4-(5-methylimidazo[5,1-b][1,3,4]oxadiazol-2-yl)phenyl) acetamide]
IC50 [1]: 100 to 500 nM
Abtot/Ab42 selectivity ranges [2]: a (a: selectivity ≥ 100 fold)

Cc1ncc2oc(-c3ccc(NC(=O)Cc4cccc(C(F)(F)F)c4)cc3)nn12 [Example 3, N-[4-(5-Methyl-imidazo[5,1-b][1,2,4]oxadiazol-2-yl)-phenyl]-2-(3-trifluoromethyl-phenyl)-acetamide]
IC50 [1]: 1000 to 2200 nM
Abtot/Ab42 selectivity ranges [2]: c (c: 50 fold > selectivity ≥ 10 fold)

Cc1ncc2sc(C(=O)N3CCCC3c3ccccc3Cl)nn12 (centres unmarked) [Example 122, [2-(2-Chloro-phenyl)-pyrrolidin-1-yl]-(5-methyl-imidazo[5,1-b][1,3,4]thiadiazol-2-yl)-methanone]
IC50 [1]: 1000 to 2200 nM
Abtot/Ab42 selectivity ranges [2]: d (d: 10 fold > selectivity)

Cc1ncc2oc(-c3ccc(NC(=O)Cc4cc(F)cc(F)c4F)cc3)nn12 [Example 61, N-(4-(5-methylimidazo[5,1-b][1,3,4]oxadiazol-2-yl)phenyl)-2-(2,3,5-trifluorophenyl)acetamide]
IC50 [1]: 500 to 1000 nM
Abtot/Ab42 selectivity ranges [2]: b (b: 100 fold > selectivity ≥ 50 fold)

Cc1ncc2sc(-c3nnc(NCc4ccc(Cl)c(Cl)c4)o3)nn12 [Example 102, (3,4-Dichloro-benzyl)-[5-(5-methyl-imidazo[5,1-b][1,3,4]thiadiazol-2-yl)-[1,3,4]oxadiazol-2-yl]-amine]
IC50 [1]: 100 to 500 nM
Abtot/Ab42 selectivity ranges [2]: d (d: 10 fold > selectivity)

Cc1ncc2sc(-c3nnc(NCc4ccc(F)cc4)o3)nn12 [Example 103, (4-Fluoro-benzyl)-[5-(5-methyl-imidazo[5,1-b][1,3,4]thiadiazol-2-yl)-[1,3,4]oxadiazol-2-yl]-amine]
IC50 [1]: 500 to 1000 nM
Abtot/Ab42 selectivity ranges [2]: d (d: 10 fold > selectivity)

Cc1cc(-c2nn3c(C)ncc3o2)ccc1NC(=O)Cc1ccc(C(F)(F)F)cc1 [Example 39, N-(2-methyl-4-(5-methylimidazo[5,1-b][1,3,4]oxadiazol-2-yl)phenyl)-2-(4-(trifluoromethyl)phenyl)acetamide]
IC50 [1]: 500 to 1000 nM
Abtot/Ab42 selectivity ranges [2]: b (b: 100 fold > selectivity ≥ 50 fold)

Cc1ncc2oc(-c3ccc(NC(=O)Cc4ccc(C#N)cc4)cc3)nn12 [Example 49, 2-(4-Cyano-phenyl)-N-[4-(5-methyl-imidazo[5,1-b] [1,2,4]oxadiazol-2-yl)-phenyl]-acetamide]
IC50 [1]: 1000 to 2200 nM
Abtot/Ab42 selectivity ranges [2]: c (c: 50 fold > selectivity ≥ 10 fold)

Cc1ncc2oc(-c3ccc(NC(=O)Cc4cccc(Oc5ccccc5)c4)cn3)nn12 [Example 15, N-[6-(5-Methyl-imidazo[5,1-b][1,2,4]oxadiazol-2-yl)-pyridin-3-yl]-2-(3-phenoxy-phenyl)-acetamide]
IC50 [1]: 500 to 1000 nM
Abtot/Ab42 selectivity ranges [2]: b (b: 100 fold > selectivity ≥ 50 fold)

Cc1ncc2sc(C(=O)NC(c3ccc(Cl)cc3)C3CC3)nn12 (centres unmarked) [Example 91, 5-Methyl-imidazo[5,1-b][1,3,4]thiadiazole-2-carboxylic acid [(4-chloro-phenyl)-cyclopropyl-methyl]-amide]
IC50 [1]: 1000 to 2200 nM
Abtot/Ab42 selectivity ranges [2]: d (d: 10 fold > selectivity)

Cc1ncc2sc(C(=O)N3CCCC3c3ccc(Cl)cc3)nn12 (centres unmarked) [Example 118, [2-(4-Chloro-phenyl)-pyrrolidin-1-yl]-(5-methyl-imidazo[5,1-b][1,3,4]thiadiazol-2-yl)-methanone]
IC50 [1]: 100 to 500 nM

— patent US9932354B2, “Imidazo-oxadiazole and imidazo-thiadiazole derivatives” (Ares Trading S.A., priority 2012, dated 2018)
